From patent US5100907A, “Hydantoin esters” (Lonza, Inc., priority 1990, dated 1992)

Experiments:
[1] = tested on: Aspergillus niger; assay: Antimicrobial study against Aspergillus niger (mold); type: cell-based; settings: methylolated C8/10 10,800 ppm, methylolated lauric 11,400 ppm, DMDMH 3,000 ppm, others 14,700 ppm
Description: (§1) The antimicrobial properties of typical esters (I) and (Ia) were tested by minimum inhibitory concentration (MIC) tests, along with certain known substances, against […] strains of organisms: a mold, Aspergillus niger; a gram-positive bacteria, Staphylococcus aureus; and two gram-negative bacteria, Escherichia coli and Pseudomonas aeruginosa. […] These tests were used to determine any effect on biocidal activity of the varying chain length of the ester.
(§2) The known substances, on which identical tests were also performed, included the biocide, dimethyloldimethylhydantoin or DMDMH (iv), and a series of three surfactants, i.e., the three common emulsifiers, sodium lauryl sulfate (SLS); ethylene glycol distearate (EGDS), in the form of the commercial product PEGOSPERSE 50 DS (Lonza Inc.); and polyoxyethylene 20 sorbitan monoleate (POE 20 SMO), in the form of the commercial product GLYCOSPERSE 0 20 (Lonza Inc.).
(§3) The tests entailed contaminating a preexisting micro-colony with a known quantity (ppm, concentration) of test material. Each colony was then examined periodically over a one week period. […] A test was deemed non-efficacious when there was no decrease in colony size. In an effort to avoid any possible solvent effect, the micro-study was conducted in a totally aqueous solvent system without use of any other solvent.

[2] = tested on: Staphylococcus aureus; assay: Antimicrobial study against Staphylococcus aureus (gram-positive bacteria); type: cell-based; settings: methylolated C8/10 10,800 ppm, methylolated lauric 11,400 ppm, DMDMH 3,000 ppm, others 14,700 ppm
Description: as §1, §2, §3

[3] = tested on: Escherichia coli; assay: Antimicrobial study against Escherichia coli (gram-negative bacteria); type: cell-based; settings: methylolated C8/10 10,800 ppm, methylolated lauric 11,400 ppm, DMDMH 3,000 ppm, others 14,700 ppm
Description: as §1, §2, §3

[4] = tested on: Pseudomonas aeruginosa; assay: Antimicrobial study against Pseudomonas aeruginosa (gram-negative bacteria); type: cell-based; settings: methylolated C8/10 10,800 ppm, methylolated lauric 11,400 ppm, DMDMH 3,000 ppm, others 14,700 ppm
Description: as §1, §2, §3

[5] = as formaldehyde donor; cited from earlier work
[6] = tested on: mold, and gram-positive and gram-negative bacteria; assay: Antimicrobial tests, overall biocidal effectiveness; type: cell-based; settings: under the test conditions
Description: as §1, §2, §3

[7] = Surface tension tests (cmc, Gibbs' Free Energy of Micellation); type: physicochemical
Description: Surface tension tests were conducted as to the relationship between the fatty acid aliphatic chain length, i.e. number of carbon atoms, in the esters (I), and their performance as surfactants. The length of the hydrophobic chain of a molecule is considered the major contributing factor to the critical micelle concentration (cmc) value of a surfactant. This value is obtained from surface tension measurement data. The lower the cmc, the more readily the material will form micelles.
The Gibbs' Free Energy of Micellation (ΔG°cmc) and the ΔG°cmc per --CH2 -- can be determined if the cmc is known.
The ΔG°cmc is a calculated value obtained by Equation 1.
ΔG°cmc =2.303RT(log cmc-log[water]) (Eq. 1)
The ΔG°cmc per --CH2 -- value is obtained from the slope of the straight line curve formed from a plot of ΔG°cmc versus the number of carbon atoms in the lipophilic chain.
The cmc values were based on surface tension tests conducted with a tensiometer (Cenco-DuNoug Precision Model #70535, direct reading model) to determine the upward surface tension at the liquid-air surface of the test ester/water solution. The methods used to calibrate the tensiometer, calculate the "correction factor" (used to correct for the difference between the apparent and true surface tension), and collect data, were conducted as described in the manual for the instrument. Sodium lauryl sulfate (SLS) and distilled water were used as reference samples.
On completing data collection, plots of the surface tension (dynes) versus -log of the concentration (mols/liter) were prepared, using only the "corrected" surface tension value, obtained by applying the noted "correction factor" in each case. The […] was found by multiplying the "apparent" surface tension by a calculated correction factor.
The critical micelle concentration (cmc) for each sample was determined by locating the point in the curve where the surface tension first begins to level off, per a known procedure.

Structure (SMILES): CC1(C)C(=O)N(CO)C(=O)N1CO [DMDMH (iv), 1,3-dihydroxymethyl-5,5-dimethyl-1,3-diazacyclopentane-2,4-dione, reference compound]
- Colony Count ([1]; Day 0): 400 × 1,000
- Colony Count ([1]; Day 1): < 0.03 × 1,000
- Colony Count ([1]; Day 2): < 0.01 × 1,000
- Colony Count ([1]; Day 3): < 0.01 × 1,000
- Colony Count ([1]; Day 7): < 0.01 × 1,000
- Colony Count ([2]; Day 0): TNC
- Colony Count ([2]; Day 1): TNC
- Colony Count ([2]; Day 2): TNC
- Colony Count ([2]; Day 3): < 0.01 × 1,000
- Colony Count ([2]; Day 7): < 0.01 × 1,000
- Colony Count ([3]; Day 0): TNC
- Colony Count ([3]; Day 1): TNC
- Colony Count ([3]; Day 2): TNC
- Colony Count ([3]; Day 3): < 0.01 × 1,000
- Colony Count ([3]; Day 7): < 0.01 × 1,000
- Colony Count ([4]; Day 0): TNC
- Colony Count ([4]; Day 1): TNC
- Colony Count ([4]; Day 2): < 0.01 × 1,000
- Colony Count ([4]; Day 3): < 0.01 × 1,000
- Colony Count ([4]; Day 7): < 0.01 × 1,000
- minimum inhibitory concentration (MIC) [5]: 0.1%

Structure (SMILES): CCCCCCCCCCCCCCCCCC(=O)OCCOC(=O)CCCCCCCCCCCCCCCCC [EGDS, ethylene glycol distearate, reference compound]
- Colony Count ([1]; Day 0): 2,000 × 1,000
- Colony Count ([1]; Day 1): 500 × 1,000
- Colony Count ([1]; Day 2): 300 × 1,000
- Colony Count ([1]; Day 3): 200 × 1,000
- Colony Count ([1]; Day 7): 700 × 1,000
- Colony Count ([2]; Day 0): 600 × 1,000
- Colony Count ([2]; Day 1): 350 × 1,000
- Colony Count ([2]; Day 2): TNC
- Colony Count ([2]; Day 3): TNC
- Colony Count ([2]; Day 7): 2,000 × 1,000
- Colony Count ([3]; Day 0): 2,000 × 1,000
- Colony Count ([3]; Day 1): TNC
- Colony Count ([3]; Day 2): TNC
- Colony Count ([3]; Day 3): TNC
- Colony Count ([3]; Day 7): TNC
- Colony Count ([4]; Day 0): 3,000 × 1,000
- Colony Count ([4]; Day 1): TNC
- Colony Count ([4]; Day 2): TNC
- Colony Count ([4]; Day 3): 2,500 × 1,000
- Colony Count ([4]; Day 7): TNC
- biocidal effectiveness [6]: none of the three known long aliphatic chain containing emulsifiers, sodium lauryl sulfate, ethylene glycol distearate and POE 20 sorbitan monoleate, was effective as a biocide

Structure (SMILES): CC1(C)C(=O)NC(=O)N1CO [MDMH (iii), 1-hydroxymethyl-5,5-dimethyl-1,3-diazacyclopentane-2,4-dione]
- minimum inhibitory concentration (MIC) [5]: 0.2%

Structure (SMILES): CCCCCCCCCCCCOS(=O)(=O)[O-].[Na+] [SLS, Sodium lauryl sulfate, reference compound]
- ΔG°cmc ([7]; Table 6): -5.552 kcal/mol
- ΔG°cmc (Gibbs' Free Energy of Micellation) ([7]; calculated from cmc by Eq. 1, T=298° K.): -5.552 kcal/mol
- cmc (critical micelle concentration) ([7]; ester/water solution): 4.4 × 10^-3 mol dm^-3
- Colony Count ([1]; Day 0): 600 × 1,000
- Colony Count ([1]; Day 1): 2,000 × 1,000
- Colony Count ([1]; Day 2): 300 × 1,000
- Colony Count ([1]; Day 3): 160 × 1,000
- Colony Count ([1]; Day 7): 200 × 1,000
- Colony Count ([2]; Day 0): 2,000 × 1,000
- Colony Count ([2]; Day 1): 3,000 × 1,000
- Colony Count ([2]; Day 2): TNC
- Colony Count ([2]; Day 3): 450 × 1,000
- Colony Count ([2]; Day 7): < 0.01 × 1,000
- Colony Count ([3]; Day 0): 8,000 × 1,000
- Colony Count ([3]; Day 1): 20 × 1,000
- Colony Count ([3]; Day 2): TNC
- Colony Count ([3]; Day 3): 160 × 1,000
- Colony Count ([3]; Day 7): 60 × 1,000
- Colony Count ([4]; Day 0): 4,100 × 1,000
- Colony Count ([4]; Day 1): 500 × 1,000
- Colony Count ([4]; Day 2): TNC
- Colony Count ([4]; Day 3): 30 × 1,000
- Colony Count ([4]; Day 7): 50 × 1,000
- biocidal effectiveness [6]: none of the three known long aliphatic chain containing emulsifiers, sodium lauryl sulfate, ethylene glycol distearate and POE 20 sorbitan monoleate, was effective as a biocide
